The values below come from ChEMBL document CHEMBL1129441, “Derivatives of the triazoloquinazoline adenosine antagonist (CGS15943) are selective for the human A3 receptor subtype” (J Med Chem, 1996).

A word on the Ki: it is a measure of affinity in units of concentration, obtained from inhibition or displacement. A high value points to lower affinity. By IC50 is commonly meant the concentration needed to halve the response being measured. A higher IC50 goes with lower potency. A word on the inhibition: it is the drop in the measured response relative to a control, in per cent.

Test [1] can be described thus: Relative binding to rat A2A and human A3 adenosine receptors (ratio of IC50).
Test [2] can be described thus: Relative binding to rat A1 and human A3 adenosine receptors (ratio of IC50).
Test [3] deals with T1, Adenosine receptor A2a (Rattus norvegicus, UniProt P30543). Nature of the test: Displacement of [3H]-[…] from Adenosine A2A receptor of rat striatal membranes. It counts as cell membranes, Membrane. For orientation: Displacement assays read how much labelled ligand stays bound in the presence of the test substance.
In test [4] the target is T2, Adenosine receptor A1 (Rattus norvegicus, UniProt P25099).
T2 sequence (P25099 whole entry): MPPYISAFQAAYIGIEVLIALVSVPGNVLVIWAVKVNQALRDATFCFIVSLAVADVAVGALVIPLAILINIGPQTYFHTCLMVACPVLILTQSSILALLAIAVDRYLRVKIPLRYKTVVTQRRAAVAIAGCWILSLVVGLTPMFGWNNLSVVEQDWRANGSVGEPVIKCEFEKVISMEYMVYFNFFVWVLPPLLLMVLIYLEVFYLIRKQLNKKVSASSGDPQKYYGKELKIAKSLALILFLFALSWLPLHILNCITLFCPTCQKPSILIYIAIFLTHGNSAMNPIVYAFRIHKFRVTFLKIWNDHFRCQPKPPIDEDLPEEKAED
Nature of the test: Displacement of [3H]-(R)-PIA from Adenosine A1 receptor of rat cerebral cortex membranes. The class given is cell membranes, Membrane.

Test [5] concerns the target T3, Adenosine receptor A3 (Homo sapiens, UniProt P0DMS8).
T3 sequence (P0DMS8 whole entry): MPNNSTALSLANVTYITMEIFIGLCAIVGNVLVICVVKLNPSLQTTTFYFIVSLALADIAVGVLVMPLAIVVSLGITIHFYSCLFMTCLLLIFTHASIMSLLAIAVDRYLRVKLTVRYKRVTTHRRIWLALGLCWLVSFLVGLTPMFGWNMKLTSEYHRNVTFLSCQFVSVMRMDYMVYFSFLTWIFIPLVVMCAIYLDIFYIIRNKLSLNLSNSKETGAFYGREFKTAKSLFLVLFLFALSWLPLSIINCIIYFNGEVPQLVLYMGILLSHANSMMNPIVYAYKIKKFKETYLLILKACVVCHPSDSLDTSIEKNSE
Nature of the test: biochemical.
Description: In vitro binding affinity at human Adenosine A3 receptor from HEK293 cells by [125I]AB-MECA displacement.

The target in test [6] is T2, Adenosine receptor A1. Description: Binding affinity for A1 receptors from rat cerebral cortex membranes using [3H]-(R(-PIA. It counts as tissue-based.
Test [7] concerns the target T1, Adenosine receptor A2a. Nature of the test: (§1) Binding affinity for Adenosine A2A receptor from rat striatal membranes using [3H]-[…].
The target in test [8] is T2, Adenosine receptor A1. Nature of the test: Binding affinity for Adenosine A1 receptor from rat cerebral cortex membranes using [3H](R)-PIA. The class given is tissue-based.
In test [9] the target is T4, Adenosine receptor A1 (Rattus norvegicus) (UniProt P25099).
T4 sequence (whole entry): T2 sequence (P25099 whole entry)
Nature of the test: Binding affinity for Adenosine A1 receptor from rat cerebral cortex membranes using [3H]-(R)-PIA. It counts as tissue-based. The following applies: concentration not given here.

Test [10] addresses Adenosine receptor A2a (Rattus norvegicus) (UniProt P30543). The test is described as §1. The following applies: concentration not given here.
For test [11], the target named is T5, Adenosine receptor A3 (Rattus norvegicus, UniProt P28647).
T5 sequence (P28647 whole entry): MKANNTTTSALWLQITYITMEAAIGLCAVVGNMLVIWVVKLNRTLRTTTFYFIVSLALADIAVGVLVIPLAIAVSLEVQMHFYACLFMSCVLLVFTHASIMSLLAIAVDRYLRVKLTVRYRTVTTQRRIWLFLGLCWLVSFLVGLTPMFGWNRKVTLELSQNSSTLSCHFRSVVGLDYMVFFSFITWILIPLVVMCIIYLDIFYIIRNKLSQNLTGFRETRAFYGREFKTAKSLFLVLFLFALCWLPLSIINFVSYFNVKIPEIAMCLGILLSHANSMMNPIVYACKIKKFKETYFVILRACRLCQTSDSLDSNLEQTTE
Description: Binding affinity for Adenosine A3 receptor from rat striatal membranes

T1 sequence (P30543 whole entry): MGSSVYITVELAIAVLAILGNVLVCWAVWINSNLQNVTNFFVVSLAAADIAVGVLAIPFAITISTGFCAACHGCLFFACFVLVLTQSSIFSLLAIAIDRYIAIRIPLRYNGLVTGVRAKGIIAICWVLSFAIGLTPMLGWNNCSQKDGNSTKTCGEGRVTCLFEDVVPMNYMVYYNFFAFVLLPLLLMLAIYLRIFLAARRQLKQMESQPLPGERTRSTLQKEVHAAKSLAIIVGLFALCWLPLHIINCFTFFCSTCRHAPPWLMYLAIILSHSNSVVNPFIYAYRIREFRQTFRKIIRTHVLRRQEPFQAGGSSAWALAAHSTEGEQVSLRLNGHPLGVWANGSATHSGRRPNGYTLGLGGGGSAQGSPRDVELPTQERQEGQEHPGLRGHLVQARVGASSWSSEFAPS
Sequence of Adenosine receptor A2a (Rattus norvegicus) (P30543 whole entry): as above

Consider `CCC(=O)Nc1nc2ccc(Cl)cc2c2nc(-c3ccco3)nn12`, for which the Ratio in test [1] came out at 14; in test [2] it was 40.

As for `CC(C)(C)C(=O)Nc1nc2ccc(Cl)cc2c2nc(-c3ccco3)nn12`, the Ki on Adenosine receptor A2a [3] came out at 88.8 nM. The values for the Ratio in test [1] and in [2] were 0.36 and 0.84, respectively.

As for `O=C(Nc1nc2ccc(Cl)cc2c2nc(-c3ccco3)nn12)c1cccc(I)c1`, the Ki came out at 200 nM at Adenosine receptor A1 [4], 310 nM at Adenosine receptor A2a [3] and 23.8 nM at Adenosine receptor A3 [5]. Besides, the Ratio in test [1] was found to be 13; in [2], 8.4.

For `CCOC(=O)C1=C(c2ccccc2)Nc2cc(C)c(C(=O)OCC)cc2C1/C=C/c1ccccc1` (stereo not given), the concentration for half-maximal inhibition (IC50) on Adenosine receptor A1 [6] amounted to 5.93 nM; on Adenosine receptor A2a [7], 4.77 nM. On Adenosine receptor A3 [5], the affinity corresponds to a Ki of 0.11 nM.

In the case of `NCCCC(=O)Nc1nc2ccc(Cl)cc2c2nc(-c3ccco3)nn12`, the Ki amounted to 14.4 nM on Adenosine receptor A2a [3] and 80.8 nM at Adenosine receptor A3 [5]. The Ratio in test [1] turned out to be 0.18; in test [2], 0.14.

In turn, `Nc1nc2ccc(Cl)cc2c2nc(-c3ccc(Br)o3)nn12` gave an IC50 on Adenosine receptor A2a [7] of 531 nM. The same compound displayed a Ki at Adenosine receptor A3 [5] of 64 nM.

With `CCCC(=O)Nc1nc2ccc(Cl)cc2c2nc(-c3ccco3)nn12`, on Adenosine receptor A2a [3], the Ki was 37.6 nM. Also, the Ratio in test [1] was found to be 2.6; in test [2], 2.2.

Turning to `CCCCC(=O)Nc1nc2ccc(Cl)cc2c2nc(-c3ccco3)nn12`, the affinity on Adenosine receptor A2a [3], expressed as Ki, was 48.8 nM. Further, the Ratio in test [1] stood at 2.3; in [2] it was 1.3.

Consider `Cc1ccc(-c2oc3ccc(Cl)cc3c(=O)c2Cl)c(OC(C)C)c1`, for which the Ki on Adenosine receptor A1 [8] was over 100000 nM. In addition, the IC50 at Adenosine receptor A2a [7] was over 100 nM.

Regarding `CCCn1c(=O)n2nc(-c3ccco3)nc2c2cc(Cl)ccc21`, the results for the Ki on Adenosine receptor A1 [4], on Adenosine receptor A2a [3] and on Adenosine receptor A3 [5] were 1850 nM, 6960 nM and 1810 nM, respectively. In addition, the Ratio stood at 3.8 in [1] and 1 in test [2].

As to `O=C(Nc1nc2ccc(Cl)cc2c2nc(-c3ccc(Br)o3)nn12)c1ccccc1`, the inhibition in test [9] and in test [10] was under 10% in each case.

As to `Oc1nc2ccc(Cl)cc2c2nc(-c3ccco3)nn12`, the figures for the Ki on Adenosine receptor A1 [4] and on Adenosine receptor A2a [3] were 3950 nM and 4380 nM, respectively. The Ratio in test [1] was determined as 17; in [2] it was 15.

As for `O=C(Nc1nc2ccc(Cl)cc2c2nc(-c3ccco3)nn12)c1ccccc1`, the Ki was found to be 680 nM at Adenosine receptor A1 [4], 273 nM on Adenosine receptor A2a [3] and 3.03 nM on Adenosine receptor A3 [5]. Further, the Ratio came out at 90 in [1] and 220 in test [2].

`CC(C)(C)OC(=O)NCCCC(=O)Nc1nc2ccc(Cl)cc2c2nc(-c3ccco3)nn12`: the Ki came to 135 nM on Adenosine receptor A2a [3] and 32.9 nM on Adenosine receptor A3 [5]. In addition, the Ratio in test [1] came to 4.1; in test [2], 2.8.

`Nc1nc2ccc(Cl)cc2c2nc(-c3ccco3)nn12` [CGS-15943] returned an IC50 at Adenosine receptor A2a [7] of 3.3 nM. The compound also yielded a Ki at Adenosine receptor A3 [11] of 100000 nM.

Take `CC(=O)Nc1nc2ccc(Cl)cc2c2nc(-c3ccco3)nn12`: at Adenosine receptor A2a [3], the affinity, expressed as Ki, was 36.3 nM.
